Measurements published in patent US11267802B2 (BEBETTER MED INC., priority 2015, dated 2022).

Legend:
[1] = system: H1975; test: Inhibition assay on tumor cell proliferation (CellTiter-Glo), H1975; type: cell-based, Human; conditions: Homo sapiens, NCI-H1975; H1975 (L858R and T790M EGFR double mutation), 72 hours, 10% bovine serum
[2] = system: HCC827; test: Inhibition assay on tumor cell proliferation (CellTiter-Glo), HCC827; type: cell-based; conditions: Homo sapiens; HCC827 (ex19del), 72 hours, 10% bovine serum
Description: (§1) By using a CellTiter-Glo luminescence cell viability test kit (Promega, # G7572), the content of adenosine triphosphate (ATP) was determined to assess the cell viability.
(§2) Human colon cancer cell line LOVO and human non-small-cell lung cancer H358 express wild-type EGFR. Human non-small-cell lung cancer cell line HCC827 carries deletion mutation in exon 19 (ex19del). Those cell lines are purchased from Shanghai Fudan IBS Cell Resource Center and American Tissue Culture Collection (ATCC).
(§3) The assay procedure is as follows. The cells in a cell culture plate were digested with a pancreatic enzyme, re-suspended in a DPBS culture medium, and had the cell density counted by Scepter automated cytometer (Millipore # PHCC00000). The cells were diluted to a solution of 44,000 cells per ml. The cell solution with adjusted density was added to the cell assay plate at 90 microliters per well. The plate was placed in an incubator with 5% CO2 at 37° C. for 24 hours of incubation, and then added with different concentrations of subject compounds. The cells were incubated for 72 hours with the compounds in presence of 10% bovine serum. The content of ATP was determined by a CellTiter-Glo® Luminescent Cell Viability Assay kit (see the manufacturer's instruction for details) to evaluate cell-growth inhibition.
(§4) Briefly, 30 μl of CellTiter-Glo® reagent was added to each well, and then shaken for 10 minutes to induce cell lysis. The fluorescent signal was detected and recorded by Fluoroskan Ascent FL (Thermo). The max signal value was obtained from the cells treated by dimethyl sulfoxide for 72 hours. The min signal value was obtained from the medium alone (the number of the cells was 0). Inhibitory rate %=(max signal value−compound signal value)/(max signal value−min signal value)×100. The data was processed by GraphPad Prism V5.0 software (GraphPad Software, San Diego, Calif.). Sigmoidal dose-response curve fitting was performed to calculate the IC50 value.

[3] = system: LOVO; test: Inhibition assay on tumor cell proliferation (CellTiter-Glo), LOVO; type: cell-based, Human; conditions: Homo sapiens; LOVO (wild-type EGFR), 72 hours, 10% bovine serum
Description: as §1, §2, §3, §4

[4] = system: H358; test: Inhibition assay on tumor cell proliferation (CellTiter-Glo), H358; type: cell-based, Human; conditions: Homo sapiens, NCI-H358; H358 (wild-type EGFR), 72 hours, 10% bovine serum
In short: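 Viability from ATP content by CellTiter-Glo luminescence; inhibition normalised to DMSO (max) and medium-only (min) wells, IC50 by sigmoidal dose-response fitting. LOVO and H358 carry wild-type EGFR; HCC827 has exon 19 deletion.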

[5] = system: H1975 xenograft tumor; test: Potency assay of tumor model, dose-effect relationship, 22 consecutive days; type: in vivo, Balb/C nude mice; conditions: for Tumor inhibition T/C value (%) / Weight change (%): po, qd
Description: (§5) Balb/C nude mice were purchased from Beijing Vital River Laboratory Animal Technology Co., Ltd., and housed in SPF animal room. The human non-small-cell lung cancer cell line H1975 in a culture dish was collected by trypsin-EDTA (0.25% trypsin, 1 mM EDTA), and then washed with a serum-free PBS solution. Lastly, the cells were implanted after diluted in a serum-free medium. Only the single cell suspension with a survival rate over 90% (Trypan blue rejection) can be used for injection. 5 million cells suspended in a 0.1 ml serum-free culture were injected into the front right flanking subcutaneous region of each mouse by using a 1 ml syringe and a 25G syringe needle, and the blood vessel was carefully avoided. The tumor size was measured in about one week after implantation. A caliper rule was used to measure the tumor size. The tumor volume was calculated by the following formula: tumor volume=(length×width^2)/2.
Further assay was performed to assess the dose-effect relationship of the inhibition of H1975 transplantation tumor growth by the compounds 51 and 91. […] These compounds were dissolved in 30% sulfobutylated beta-cyclodextrin (SBE-β-CD) and 1N HCl (pH 3-4), respectively. […]

[6] = biological target: T1, EGFR T790M/L858R (Homo sapiens, UniProt P00533, L858R/T790M); test: Mutant EGFR T790M/L858R activity inhibition assay (Caliper mobility shift); type: biochemical; conditions: read-out: enzyme activity inhibition (IC50) EGFR T790M/L858R
T1 construct: purchased Invitrogen PR8911A
T1 sequence (P00533 25-1210 T790M/L858R): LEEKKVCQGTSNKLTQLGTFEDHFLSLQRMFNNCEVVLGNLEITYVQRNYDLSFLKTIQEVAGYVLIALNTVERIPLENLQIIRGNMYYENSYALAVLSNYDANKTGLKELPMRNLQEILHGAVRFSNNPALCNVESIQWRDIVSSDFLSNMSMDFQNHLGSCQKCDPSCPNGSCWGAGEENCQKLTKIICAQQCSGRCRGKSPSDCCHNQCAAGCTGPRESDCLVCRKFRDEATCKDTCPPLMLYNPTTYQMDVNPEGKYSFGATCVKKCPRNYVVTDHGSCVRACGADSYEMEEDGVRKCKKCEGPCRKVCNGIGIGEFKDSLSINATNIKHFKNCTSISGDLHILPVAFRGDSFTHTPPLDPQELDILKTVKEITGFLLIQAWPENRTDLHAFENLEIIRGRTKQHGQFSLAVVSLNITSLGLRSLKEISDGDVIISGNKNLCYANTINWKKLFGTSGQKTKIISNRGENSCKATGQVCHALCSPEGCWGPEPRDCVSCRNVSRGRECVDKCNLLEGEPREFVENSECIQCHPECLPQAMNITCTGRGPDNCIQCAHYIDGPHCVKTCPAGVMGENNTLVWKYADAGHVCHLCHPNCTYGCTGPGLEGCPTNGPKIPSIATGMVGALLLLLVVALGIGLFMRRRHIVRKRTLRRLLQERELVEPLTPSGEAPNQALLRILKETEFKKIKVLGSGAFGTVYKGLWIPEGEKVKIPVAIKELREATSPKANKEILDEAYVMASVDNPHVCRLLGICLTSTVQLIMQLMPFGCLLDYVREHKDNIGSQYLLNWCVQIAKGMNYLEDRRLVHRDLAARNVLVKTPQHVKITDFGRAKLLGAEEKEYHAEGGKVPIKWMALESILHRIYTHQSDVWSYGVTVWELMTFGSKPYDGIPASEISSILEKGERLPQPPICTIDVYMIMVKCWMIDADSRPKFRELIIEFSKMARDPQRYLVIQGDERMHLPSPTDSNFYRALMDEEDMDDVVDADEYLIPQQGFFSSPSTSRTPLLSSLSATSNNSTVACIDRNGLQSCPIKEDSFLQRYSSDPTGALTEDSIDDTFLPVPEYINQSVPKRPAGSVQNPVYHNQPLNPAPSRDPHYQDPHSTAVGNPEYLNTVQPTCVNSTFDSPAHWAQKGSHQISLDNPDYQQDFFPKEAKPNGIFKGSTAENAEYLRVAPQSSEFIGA
In short: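 Compound added in 10% DMSO at 5-fold final concentration; substrate conversion read by Caliper mobility shift. Inhibition = (max−conversion)/(max−min)×100, with max from DMSO no-compound wells and min from no-enzyme wells; IC50 from fitted concentration–response curve.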

[7] = Pharmacokinetics in rats after oral administration; type: in vivo, SD rats; conditions: for AUC(0-inf) / Cmax / Tmax / half-life / AUC(0-t): male, SD, rat, 20 mg/kg, plasma; for AUC(0-t): read-out: AUC0-24
Description: (§6) Male SD rats weighing 250-300 g, or male beagles weighing 9-10 kg, were fasted overnight before the experiment. The object compounds were dissolved in 30% sulfobutylated beta-cyclodextrin (SBE-β-CD), and orally administrated to the rats at a dose of 20 mg/kg or to the beagles at a dose of 5 mg/kg. Blood samples were taken at 15 minutes, 30 minutes, 1 hour, 2 hours, 3 hours, 4 hours, 6 hours, 8 hours and 24 hours after administration. 0.3 ml of blood was collected at every time point, placed in a centrifuge tube containing K2-EDTA (ethylenediamine tetraacetic acid dipotassium) and centrifuged (2,000 g, 10 minutes, 4° C.) to collect plasma, which was then stored in an ultra cold storage freezer at −80° C. 50 μL of plasma sample was mixed with 5 μL of internal standard (IS), and then extracted with ethyl acetate. After vacuum drying, the residue was re-dissolved in acetonitrile. The sample was filtered and injected into LC-MS/MS for analysis.

[8] = system: H1975 xenograft tumor; test: Potency assay of tumor model, 16 consecutive days; type: in vivo, Balb/C nude mice; conditions: oral; for inhibition of growth of H1975 xenograft tumor (in words): 30 mg/kg qd, 16 days
Description: as §5
This experiment studied the inhibition of tumor growth in H1975 xenograft tumor model by the compounds 20, 50, 91, and 118. When the mean volume of H1975 tumor reached about 260 mm^3, the animals were divided into 5 oral administration groups, that is, excipient control group and groups of oral administration of compound 20, compound 50, compound 91, and compound 118, respectively (n=8/group). These compounds were dissolved in 30% sulfobutylated beta-cyclodextrin (SBE-β-CD) and 1N HCl (pH 3-4). […]

[9] = Pharmacokinetics in beagles after oral administration; type: in vivo; conditions: male, beagle, dog, 5 mg/kg, plasma
Description: as §6

Structure (SMILES)	IC50 [1]	IC50 [2]	IC50 [3]	IC50 [4]	IC50 [6]	inhibition of growth of H1975 xenograft tumor (in words) [8]	melting point	further results
C=CC(=O)Nc1cc(Nc2nccc(-c3cn(C)c4ccccc34)n2)c(OC)cc1N(C)CCN(C)C [AZD9291, Osimertinib, reference compound]	< 10 nM	< 10 nM	> 1000 nM	100 to 1000 nM				Tumor inhibition T/C value (%) ([5]; 25 mg/kg, 22 consecutive days): −100%; Weight change (%) ([5]; 25 mg/kg, 22 consecutive days): −7.2%
C=CC(=O)Nc1cccc(Nc2nc(Nc3ccc(N4CCN(C(C)=O)CC4)cc3OC)ncc2C(F)(F)F)c1 [CO-1686, Rociletinib, reference compound]	10 to 50 nM	100 to 1000 nM	> 1000 nM	100 to 1000 nM				
C=CC(=O)Nc1cc(Nc2nccc(-n3ccc4nc(OC)ccc43)n2)c(OC)cc1N(C)CCN(C)C [Compound 20, N-(2-((2-(dimethylamino)ethyl)(methyl)amino)-4-methoxy-5-((4-(5-methoxy-1H-pyrrolo[3,2-b]pyridin-1-yl)pyrimidin-2-yl)amino)phenyl)acrylamide]	< 10 nM			100 to 1000 nM	< 1 nM	tumor regression		absorption / blood exposure after oral administration (in words) [7]: well absorbed, with high blood exposure; AUC(0-inf) [7]: 1450 ng·h/mL; Cmax [7]: 350 ng/mL; Tmax [7]: 1.67 h; half-life [7]: 3.7 h; AUC(0-t) [7]: 1440 ng·h/mL
C=CC(=O)Nc1cc(Nc2nccc(-n3ccc4cc(CO)ccc43)n2)c(OC)cc1N(C)CCN(C)C [Compound 39, N-(2-((2-(dimethylamino)ethyl)(methyl)amino)-5-((4-(5-(hydroxymethyl)-1H-indol-1-yl)pyrimidin-2-yl)amino)-4-methoxyphenyl)acrylamide]	< 10 nM	< 10 nM	> 1000 nM	100 to 1000 nM	< 1 nM		67 to 68 °C	
C=CC(=O)Nc1cc(Nc2nccc(-n3c(=O)n(C)c4cc(F)ccc43)n2)c(OC)cc1N(C)CCN(C)C [Compound 50, N-(2-((2-(dimethylamino)ethyl)(methyl)amino)-5-((4-(5-fluoro-3-methyl-2-oxo-2,3-dihydro-1H-benzo[d]imidazol-1-yl)pyrimidin-2-yl)amino)-4-methoxyphenyl)acrylamide]	< 10 nM			100 to 1000 nM	< 1 nM	tumor regression	208 to 210 °C	absorption / blood exposure after oral administration (in words) [7]: well absorbed, with high blood exposure; AUC(0-inf) [7]: 598 ng·h/mL; Cmax [7]: 173 ng/mL; Tmax [7]: 1 h; half-life [7]: 3.1 h; AUC(0-t) [7]: 561 ng·h/mL; AUC(0-inf) [9]: 1470 ng·h/mL; Cmax [9]: 428 ng/mL; Tmax [9]: 1 h; half-life [9]: 1.45 h; AUC(0-t) ([9]; read-out: AUC0-24): 1420 ng·h/mL; T/C value ([8]; 30 mg/kg qd as printed, 16 days after administration): −97%; Tumor inhibition T/C value (%) ([5]; 10 mg/kg, 22 consecutive days): −65%; Weight change (%) ([5]; 10 mg/kg, 22 consecutive days): 0.0%; Tumor inhibition T/C value (%) ([5]; 20 mg/kg, 22 consecutive days): −95%; Weight change (%) ([5]; 20 mg/kg, 22 consecutive days): −2.0%; Tumor inhibition T/C value (%) ([5]; 40 mg/kg, 22 consecutive days): −100%; Weight change (%) ([5]; 40 mg/kg, 22 consecutive days): −4.4%; tumor outcome (in words) ([5]; high dose (40 mg/kg), 22 consecutive days): the tumor disappeared completely; dose dependence of inhibition of H1975 xenograft tumor growth (in words) ([5]; oral, 10, 20 and 40 mg/kg): dose dependently inhibited
C=CC(=O)Nc1cc(Nc2nccc(-n3ccc4ccccc43)n2)c(OC)cc1N1CC[C@H](N(C)C)C1 [Compound 78, (S)—N-(5-((4-(1H-indol-1-yl)pyrimidin-2-yl)amino)-2-(3-(dimethylamino)pyrrolidin-1-yl)-4-methoxyphenyl)acrylamide]	10 to 50 nM		> 1000 nM	> 1000 nM	1 to 10 nM		161 to 162 °C	
C=CC(=O)Nc1cc(Nc2nccc(-n3ccc4ccccc43)n2)c(OC)cc1N1CC[C@@H](N(C)C)C1 [Compound 79, (R)—N-(5-((4-(1H-indol-1-yl)pyrimidin-2-yl)amino)-2-(3-(dimethylamino)pyrrolidin-1-yl)-4-methoxyphenyl)acrylamide]	50 to 100 nM		> 1000 nM	> 1000 nM	< 1 nM		161 to 162 °C	
C=CC(=O)Nc1cc(Nc2nccc(-n3ccc4ccccc43)n2)c(OC)cc1N(C)CCN1CCCC1 [Compound 80, N-(5-(4-(1H-indol-1-yl)pyrimidin-2-ylamino)-4-methoxy-2-(methyl(2-(pyrrolidin-1-yl)ethyl)amino)phenyl)acrylamide]	< 10 nM		> 1000 nM	> 1000 nM	1 to 10 nM		151 to 153 °C	
C=CC(=O)Nc1cc(Nc2nccc(-n3c(=O)n(C)c4ccccc43)n2)c(C)cc1N(C)CCN(C)C [Compound 118, N-(2-((2-(dimethylamino)ethyl) (methyl)amino)-4-methyl-5-((4-(3-methyl-2-oxo-2,3-dihydro-1H-benzo[d]imidazol-1-yl)pyrimidin-2-yl)amino)phenyl)acrylamide]	< 10 nM			100 to 1000 nM	< 1 nM	tumor regression	208 to 210 °C	
